Laboratory results published in PMC12281475, “Mediator Kinase Inhibitor Selectivity and Activity in Colorectal Cancer” (ACS Chemical Biology, 2025).

Experiments:
CDK1_CycE1 = biological target: T1, CDK1_CycE1 (Homo sapiens, UniProt P06493); test: Radiometric protein kinase assay (33PanQinase), CDK1_CycE1; type: biochemical
T1 construct: purchased Reaction Biology

CDK9_CycK = biological target: T2, CDK9_CycK (Homo sapiens, UniProt P50750); test: Radiometric protein kinase assay (33PanQinase), CDK9_CycK; type: biochemical
T2 construct: purchased Reaction Biology

CDK2_CycE1 = biological target: T3, CDK2_CycE1 (Homo sapiens, UniProt P24941); test: Radiometric protein kinase assay (33PanQinase), CDK2_CycE1; type: biochemical
T3 construct: purchased Reaction Biology

CDK17_p35NCK = CDK17_p35NCK (Homo sapiens, UniProt Q00537); test: Radiometric protein kinase assay (33PanQinase), CDK17_p35NCK; type: biochemical
CDK19_CycC = biological target: T4, CDK19_CycC (Homo sapiens, UniProt Q9BWU1); test: Radiometric protein kinase assay (33PanQinase), CDK19_CycC; type: biochemical
T4 construct: purchased Reaction Biology

CDK8_CycC = biological target: T5, CDK8_CycC (Homo sapiens, UniProt P49336); test: Radiometric protein kinase assay (33PanQinase), CDK8_CycC; type: biochemical
T5 construct: purchased Reaction Biology

CDK2_CycD1 = biological target: T6, CDK2_CycD1 (Homo sapiens, UniProt P24941); test: Radiometric protein kinase assay (33PanQinase), CDK2_CycD1; type: biochemical
T6 construct: purchased Reaction Biology

CDK1_CycB1 = biological target: T7, CDK1_CycB1 (Homo sapiens, UniProt P06493); test: Radiometric protein kinase assay (33PanQinase), CDK1_CycB1; type: biochemical
T7 construct: purchased Reaction Biology

CDK1_CycA2 = biological target: T8, CDK1_CycA2 (Homo sapiens, UniProt P06493); test: Radiometric protein kinase assay (33PanQinase), CDK1_CycA2; type: biochemical
T8 construct: purchased Reaction Biology

CDK16_CycY = biological target: T9, CDK16_CycY (Homo sapiens, UniProt Q00536); test: Radiometric protein kinase assay (33PanQinase), CDK16_CycY; type: biochemical
T9 construct: purchased Reaction Biology

CDK12_CycK = biological target: T10, CDK12_CycK (Homo sapiens, UniProt Q9NYV4); test: Radiometric protein kinase assay (33PanQinase), CDK12_CycK; type: biochemical; details: slope of the IC50 fit
T10 construct: purchased Reaction Biology

CDK18_CycY = CDK18_CycY (Homo sapiens, UniProt Q07002); test: Radiometric protein kinase assay (33PanQinase), CDK18_CycY; type: biochemical
CDK13_CycK = biological target: T11, CDK13_CycK (Homo sapiens, UniProt Q14004); test: Radiometric protein kinase assay (33PanQinase), CDK13_CycK; type: biochemical; details: slope of the IC50 fit
T11 construct: purchased Reaction Biology

CDK20_CycT1 = CDK20_CycT1 (Homo sapiens, UniProt Q8IZL9); test: Radiometric protein kinase assay (33PanQinase), CDK20_CycT1; type: biochemical
CDK14_CycY = CDK14_CycY (Homo sapiens, UniProt O94921); test: Radiometric protein kinase assay (33PanQinase), CDK14_CycY; type: biochemical
CDK3_CycE1 = biological target: T12, CDK3_CycE1 (Homo sapiens, UniProt Q00526); test: Radiometric protein kinase assay (33PanQinase), CDK3_CycE1; type: biochemical; details: slope of the IC50 fit
T12 construct: purchased Reaction Biology

CDK4_CycD3 = biological target: T13, CDK4_CycD3 (Homo sapiens, UniProt P11802); test: Radiometric protein kinase assay (33PanQinase), CDK4_CycD3; type: biochemical
T13 construct: purchased Reaction Biology

CDK9_CycT1 = biological target: T14, CDK9_CycT1 (Homo sapiens, UniProt P50750); test: Radiometric protein kinase assay (33PanQinase), CDK9_CycT1; type: biochemical
T14 construct: purchased Reaction Biology

CDK5_p35NCK = biological target: T15, CDK5_p35NCK (Homo sapiens, UniProt Q00535); test: Radiometric protein kinase assay (33PanQinase), CDK5_p35NCK; type: biochemical
T15 construct: purchased Reaction Biology

CDK8 = system: CDK8; design: method as in numbers not given; details: reporter displacement assay; previously characterized compounds, no method in this paper; ref numbers not given; read-out: IC50 for in vitro CDK8 binding; cited from earlier work
CDK4_CycD2 = biological target: T16, CDK4_CycD2 (Homo sapiens, UniProt P11802); test: Radiometric protein kinase assay (33PanQinase), CDK4_CycD2; type: biochemical
T16 construct: purchased Reaction Biology

CDK3_CycC = biological target: T17, CDK3_CycC (Homo sapiens, UniProt Q00526); test: Radiometric protein kinase assay (33PanQinase), CDK3_CycC; type: biochemical
T17 construct: purchased Reaction Biology

CDK6_CycD1 = biological target: T18, CDK6_CycD1 (Homo sapiens, UniProt Q00534); test: Radiometric protein kinase assay (33PanQinase), CDK6_CycD1; type: biochemical
T18 construct: purchased Reaction Biology

CDK6_CycD2 = biological target: T19, CDK6_CycD2 (Homo sapiens, UniProt Q00534); test: Radiometric protein kinase assay (33PanQinase), CDK6_CycD2; type: biochemical
T19 construct: purchased Reaction Biology

CDK11B 357-795_CycK = CDK11B 357-795_CycK (Homo sapiens, UniProt P21127); test: Radiometric protein kinase assay (33PanQinase), CDK11B 357-795_CycK; type: biochemical
CDK5_p25NCK = biological target: T20, CDK5_p25NCK (Homo sapiens, UniProt Q00535); test: Radiometric protein kinase assay (33PanQinase), CDK5_p25NCK; type: biochemical
T20 construct: purchased Reaction Biology

CDK15_CycA2 = biological target: T21, CDK15_CycA2 (Homo sapiens, UniProt Q96Q40); test: Radiometric protein kinase assay (33PanQinase), CDK15_CycA2; type: biochemical
T21 construct: purchased Reaction Biology

CDK10_CycQ = CDK10_CycQ (Homo sapiens, UniProt Q15131); test: Radiometric protein kinase assay (33PanQinase), CDK10_CycQ; type: biochemical
CDK20_CycH = CDK20_CycH (Homo sapiens, UniProt Q8IZL9); test: Radiometric protein kinase assay (33PanQinase), CDK20_CycH; type: biochemical
CDK2_CycA2 = biological target: T22, CDK2_CycA2 (Homo sapiens, UniProt P24941); test: Radiometric protein kinase assay (33PanQinase), CDK2_CycA2; type: biochemical
T22 construct: purchased Reaction Biology

CDK7_CycH_MAT1 = biological target: T23, CDK7_CycH_MAT1 (Homo sapiens, UniProt P50613); test: Radiometric protein kinase assay (33PanQinase), CDK7_CycH_MAT1; type: biochemical
T23 construct: purchased Reaction Biology

CDK6_CycD3 = biological target: T24, CDK6_CycD3 (Homo sapiens, UniProt Q00534); test: Radiometric protein kinase assay (33PanQinase), CDK6_CycD3; type: biochemical; details: slope of the IC50 fit
T24 construct: purchased Reaction Biology

CDK4_CycD1 = biological target: T25, CDK4_CycD1 (Homo sapiens, UniProt P11802); test: Radiometric protein kinase assay (33PanQinase), CDK4_CycD1; type: biochemical
T25 construct: purchased Reaction Biology

[1] = highest assay concentration 1.00E-05 M, read-out: IC50
[2] = highest assay concentration 1.00E-05 M

CDK20_CycT1, sequence (Q8IZL9 whole entry): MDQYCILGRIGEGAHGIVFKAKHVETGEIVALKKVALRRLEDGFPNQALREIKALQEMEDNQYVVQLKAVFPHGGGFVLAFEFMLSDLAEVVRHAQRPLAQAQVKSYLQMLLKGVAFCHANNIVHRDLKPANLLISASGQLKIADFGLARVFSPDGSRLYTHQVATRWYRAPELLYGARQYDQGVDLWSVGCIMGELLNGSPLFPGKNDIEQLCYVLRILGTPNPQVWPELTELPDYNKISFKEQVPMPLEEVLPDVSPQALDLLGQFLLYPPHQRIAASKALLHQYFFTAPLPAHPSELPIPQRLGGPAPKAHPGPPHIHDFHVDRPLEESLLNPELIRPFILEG
CDK20_CycH, sequence (Q8IZL9 whole entry): as above
T19 sequence (Q00534 whole entry): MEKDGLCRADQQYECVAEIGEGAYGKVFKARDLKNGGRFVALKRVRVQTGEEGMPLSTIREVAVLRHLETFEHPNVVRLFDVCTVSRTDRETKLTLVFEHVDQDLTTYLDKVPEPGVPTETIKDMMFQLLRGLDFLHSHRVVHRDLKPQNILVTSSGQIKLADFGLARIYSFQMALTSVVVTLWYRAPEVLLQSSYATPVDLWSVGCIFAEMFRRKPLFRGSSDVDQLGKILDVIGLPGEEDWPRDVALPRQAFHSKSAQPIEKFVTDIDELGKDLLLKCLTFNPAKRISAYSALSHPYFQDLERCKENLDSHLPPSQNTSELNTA
T19 sequence (P30279 whole entry partner): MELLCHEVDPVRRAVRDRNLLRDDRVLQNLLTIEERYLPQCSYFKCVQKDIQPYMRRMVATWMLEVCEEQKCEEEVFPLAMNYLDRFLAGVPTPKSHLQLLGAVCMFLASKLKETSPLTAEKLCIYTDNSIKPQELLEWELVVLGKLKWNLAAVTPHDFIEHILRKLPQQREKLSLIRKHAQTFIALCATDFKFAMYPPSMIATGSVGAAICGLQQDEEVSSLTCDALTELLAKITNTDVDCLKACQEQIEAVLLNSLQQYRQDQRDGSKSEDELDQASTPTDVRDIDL
T16 sequence (P11802 whole entry): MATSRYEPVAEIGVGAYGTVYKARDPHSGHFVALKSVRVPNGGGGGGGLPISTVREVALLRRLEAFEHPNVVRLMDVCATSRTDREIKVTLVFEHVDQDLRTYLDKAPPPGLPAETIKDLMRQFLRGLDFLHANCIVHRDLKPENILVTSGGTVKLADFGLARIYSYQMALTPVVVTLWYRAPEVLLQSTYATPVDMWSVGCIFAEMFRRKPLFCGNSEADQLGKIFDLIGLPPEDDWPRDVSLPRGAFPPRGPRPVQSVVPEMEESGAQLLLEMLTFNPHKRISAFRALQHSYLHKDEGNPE
T16 sequence (P30279 whole entry partner): as the sequence (P30279 whole entry partner) above
T13 sequence (P11802 whole entry): as the sequence (P11802 whole entry) above
T13 sequence (P30281 whole entry partner): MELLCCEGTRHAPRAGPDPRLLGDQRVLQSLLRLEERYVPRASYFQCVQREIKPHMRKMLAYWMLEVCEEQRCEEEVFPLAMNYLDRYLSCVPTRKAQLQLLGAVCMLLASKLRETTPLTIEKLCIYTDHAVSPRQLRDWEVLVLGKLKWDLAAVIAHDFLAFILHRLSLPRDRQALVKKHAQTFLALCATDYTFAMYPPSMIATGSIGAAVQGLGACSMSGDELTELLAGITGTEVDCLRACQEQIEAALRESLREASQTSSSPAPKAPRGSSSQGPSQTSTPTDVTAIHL
CDK17_p35NCK, sequence (Q00537 whole entry): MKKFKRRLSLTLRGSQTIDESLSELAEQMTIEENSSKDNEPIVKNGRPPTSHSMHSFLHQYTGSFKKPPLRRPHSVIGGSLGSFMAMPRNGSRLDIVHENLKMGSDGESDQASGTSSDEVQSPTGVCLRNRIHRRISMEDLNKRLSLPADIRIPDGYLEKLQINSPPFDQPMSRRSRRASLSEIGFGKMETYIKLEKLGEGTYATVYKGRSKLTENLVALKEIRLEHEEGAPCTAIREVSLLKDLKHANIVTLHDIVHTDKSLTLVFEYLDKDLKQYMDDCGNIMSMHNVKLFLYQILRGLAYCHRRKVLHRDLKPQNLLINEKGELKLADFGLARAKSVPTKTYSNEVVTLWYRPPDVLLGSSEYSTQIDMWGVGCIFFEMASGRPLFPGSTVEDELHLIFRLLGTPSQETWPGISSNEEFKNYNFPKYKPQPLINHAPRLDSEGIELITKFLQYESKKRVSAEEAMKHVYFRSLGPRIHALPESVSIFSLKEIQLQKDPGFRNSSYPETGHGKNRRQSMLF
CDK18_CycY, sequence (Q07002 whole entry): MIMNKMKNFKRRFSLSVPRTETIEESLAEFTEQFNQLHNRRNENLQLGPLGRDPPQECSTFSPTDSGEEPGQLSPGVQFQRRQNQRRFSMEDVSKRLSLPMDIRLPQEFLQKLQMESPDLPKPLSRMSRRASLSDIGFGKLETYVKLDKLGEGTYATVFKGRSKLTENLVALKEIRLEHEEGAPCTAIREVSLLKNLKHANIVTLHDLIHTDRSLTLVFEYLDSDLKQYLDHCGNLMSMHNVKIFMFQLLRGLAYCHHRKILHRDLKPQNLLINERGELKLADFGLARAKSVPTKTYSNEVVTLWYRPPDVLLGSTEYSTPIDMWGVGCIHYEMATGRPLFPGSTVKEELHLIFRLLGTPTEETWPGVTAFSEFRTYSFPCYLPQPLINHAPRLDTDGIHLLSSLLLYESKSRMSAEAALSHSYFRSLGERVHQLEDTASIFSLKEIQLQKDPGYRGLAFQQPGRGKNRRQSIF
CDK18_CycY, sequence (Q8ND76 whole entry partner): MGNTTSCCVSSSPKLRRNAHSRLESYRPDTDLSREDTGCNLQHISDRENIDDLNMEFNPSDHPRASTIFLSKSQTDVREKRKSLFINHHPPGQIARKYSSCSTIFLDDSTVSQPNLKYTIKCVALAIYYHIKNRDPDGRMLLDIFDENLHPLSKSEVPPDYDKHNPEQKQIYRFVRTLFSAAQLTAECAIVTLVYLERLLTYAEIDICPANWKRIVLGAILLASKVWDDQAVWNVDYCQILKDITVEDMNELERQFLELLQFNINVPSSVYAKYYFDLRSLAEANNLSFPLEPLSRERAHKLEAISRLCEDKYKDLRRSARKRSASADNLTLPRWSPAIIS
T7 sequence (P06493 whole entry): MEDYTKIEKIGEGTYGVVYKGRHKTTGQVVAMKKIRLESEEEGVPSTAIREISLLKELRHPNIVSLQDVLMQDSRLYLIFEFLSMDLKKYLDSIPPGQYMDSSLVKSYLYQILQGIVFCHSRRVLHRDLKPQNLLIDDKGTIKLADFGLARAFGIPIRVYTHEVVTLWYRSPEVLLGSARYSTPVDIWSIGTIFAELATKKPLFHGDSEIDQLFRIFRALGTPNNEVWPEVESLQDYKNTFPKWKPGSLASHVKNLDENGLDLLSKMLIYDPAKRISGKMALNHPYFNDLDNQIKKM
T7 sequence (P14635 whole entry partner): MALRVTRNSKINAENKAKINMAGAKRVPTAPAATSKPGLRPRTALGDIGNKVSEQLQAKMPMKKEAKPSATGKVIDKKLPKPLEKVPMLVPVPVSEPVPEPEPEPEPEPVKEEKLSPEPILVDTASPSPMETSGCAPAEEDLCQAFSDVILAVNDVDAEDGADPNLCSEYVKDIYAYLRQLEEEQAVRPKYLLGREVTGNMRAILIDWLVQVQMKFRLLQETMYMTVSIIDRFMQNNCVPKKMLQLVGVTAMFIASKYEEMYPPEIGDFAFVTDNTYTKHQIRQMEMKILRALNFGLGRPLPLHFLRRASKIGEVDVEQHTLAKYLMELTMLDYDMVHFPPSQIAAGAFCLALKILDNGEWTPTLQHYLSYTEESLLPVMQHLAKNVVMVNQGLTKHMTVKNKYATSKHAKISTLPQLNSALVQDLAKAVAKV
T14 sequence (P50750 whole entry): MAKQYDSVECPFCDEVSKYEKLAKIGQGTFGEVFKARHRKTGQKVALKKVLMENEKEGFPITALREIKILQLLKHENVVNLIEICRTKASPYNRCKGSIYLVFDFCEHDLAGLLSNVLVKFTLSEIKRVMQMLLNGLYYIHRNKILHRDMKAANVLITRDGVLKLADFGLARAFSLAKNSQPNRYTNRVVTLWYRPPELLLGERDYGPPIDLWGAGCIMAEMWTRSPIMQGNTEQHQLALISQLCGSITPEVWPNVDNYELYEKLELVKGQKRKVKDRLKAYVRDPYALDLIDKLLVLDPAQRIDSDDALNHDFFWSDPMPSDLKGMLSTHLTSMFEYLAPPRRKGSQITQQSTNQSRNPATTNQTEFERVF
T14 sequence (O60563 whole entry partner): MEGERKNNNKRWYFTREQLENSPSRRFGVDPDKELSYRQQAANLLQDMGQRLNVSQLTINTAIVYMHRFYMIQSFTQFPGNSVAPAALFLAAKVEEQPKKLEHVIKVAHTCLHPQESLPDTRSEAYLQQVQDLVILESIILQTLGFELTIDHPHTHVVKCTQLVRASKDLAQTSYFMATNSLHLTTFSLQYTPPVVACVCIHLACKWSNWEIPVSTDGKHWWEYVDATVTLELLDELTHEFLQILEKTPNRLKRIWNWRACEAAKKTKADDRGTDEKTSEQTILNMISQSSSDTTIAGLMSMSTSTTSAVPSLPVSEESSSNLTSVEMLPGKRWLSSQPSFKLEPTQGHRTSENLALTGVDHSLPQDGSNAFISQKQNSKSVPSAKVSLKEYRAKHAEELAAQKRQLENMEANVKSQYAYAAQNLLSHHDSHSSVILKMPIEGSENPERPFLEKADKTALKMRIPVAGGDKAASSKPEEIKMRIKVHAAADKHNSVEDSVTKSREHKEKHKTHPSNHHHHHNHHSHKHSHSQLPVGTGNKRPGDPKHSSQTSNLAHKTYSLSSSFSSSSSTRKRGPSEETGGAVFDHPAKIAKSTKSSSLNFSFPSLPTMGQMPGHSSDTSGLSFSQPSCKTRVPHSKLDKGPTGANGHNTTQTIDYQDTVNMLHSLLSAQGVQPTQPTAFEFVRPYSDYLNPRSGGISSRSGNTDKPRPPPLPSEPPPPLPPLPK

Cn1cc(-c2ccc(-c3cncc(Cl)c3N3CCC4(CCNC4=O)CC3)cc2)cn1 [CCT251545]
IC50 (CDK1_CycE1; [1]): > 10 µM | Hill Slope (CDK1_CycE1; slope of the IC50 fit): -0.72 | IC50 (CDK9_CycK; [2]): 3.81 µM | Hill Slope (CDK9_CycK; slope of the IC50 fit): -0.78 | IC50 (CDK2_CycE1; [1]): > 10 µM | Hill Slope (CDK2_CycE1; slope of the IC50 fit): -0.5 | IC50 (CDK17_p35NCK; [2]): > 10 µM | Hill Slope (CDK17_p35NCK; slope of the IC50 fit): -0.17 | IC50 (CDK19_CycC): 0.277 µM | Hill Slope (CDK19_CycC; slope of the IC50 fit): -0.53 | IC50 (CDK8_CycC): 0.0841 µM | Hill Slope (CDK8_CycC; slope of the IC50 fit): -0.56 | IC50 (CDK2_CycD1; [1]): > 10 µM | Hill Slope (CDK2_CycD1; slope of the IC50 fit): -0.29 | IC50 (CDK1_CycB1; [2]): > 10 µM | Hill Slope (CDK1_CycB1; slope of the IC50 fit): -0.74 | IC50 (CDK1_CycA2; [1]): > 10 µM | Hill Slope (CDK1_CycA2; slope of the IC50 fit): -0.78 | IC50 (CDK16_CycY; [2]): > 10 µM | Hill Slope (CDK16_CycY; slope of the IC50 fit): -1.1 | Hill Slope (CDK12_CycK): -0.07 | IC50 (CDK18_CycY; [2]): > 10 µM | Hill Slope (CDK18_CycY; slope of the IC50 fit): -0.5 | Hill Slope (CDK13_CycK): 0.15 | IC50 (CDK20_CycT1; [2]): > 10 µM | Hill Slope (CDK20_CycT1; slope of the IC50 fit): -0.39 | IC50 (CDK14_CycY; [2]): > 10 µM | Hill Slope (CDK14_CycY; slope of the IC50 fit): -0.82 | Hill Slope (CDK3_CycE1): -0.16 | IC50 (CDK4_CycD3; [2]): > 10 µM | Hill Slope (CDK4_CycD3; slope of the IC50 fit): -0.27 | IC50 (CDK9_CycT1; [2]): 6.07 µM | Hill Slope (CDK9_CycT1; slope of the IC50 fit): -0.94 | IC50 (CDK5_p35NCK; [2]): > 10 µM | Hill Slope (CDK5_p35NCK; slope of the IC50 fit): -1.62 | IC50 (CDK8): 0.005 µM | IC50 (CDK4_CycD2; [2]): > 10 µM | Hill Slope (CDK4_CycD2; slope of the IC50 fit): -0.3 | IC50 (CDK3_CycC): > 10 µM | Hill Slope (CDK3_CycC; slope of the IC50 fit): -0.47 | IC50 (CDK6_CycD1; [2]): > 10 µM | Hill Slope (CDK6_CycD1; slope of the IC50 fit): -1.25 | IC50 (CDK6_CycD2; [2]): > 10 µM | Hill Slope (CDK6_CycD2; slope of the IC50 fit): -0.64 | IC50 (CDK11B 357-795_CycK; [2]): > 10 µM | Hill Slope (CDK11B 357-795_CycK; slope of the IC50 fit): -8.69 | IC50 (CDK5_p25NCK; [2]): > 10 µM | Hill Slope (CDK5_p25NCK; slope of the IC50 fit): -0.59 | IC50 (CDK15_CycA2; [2]): > 10 µM | Hill Slope (CDK15_CycA2; slope of the IC50 fit): -0.34 | IC50 (CDK10_CycQ; [2]): > 10 µM | Hill Slope (CDK10_CycQ; slope of the IC50 fit): -0.51 | IC50 (CDK20_CycH; [2]): > 10 µM | Hill Slope (CDK20_CycH; slope of the IC50 fit): -0.44 | IC50 (CDK2_CycA2; [1]): > 10 µM | Hill Slope (CDK2_CycA2; slope of the IC50 fit): -0.46 | IC50 (CDK7_CycH_MAT1; [2]): > 10 µM | Hill Slope (CDK7_CycH_MAT1; slope of the IC50 fit): -0.59 | Hill Slope (CDK6_CycD3): -0.2 | IC50 (CDK4_CycD1; [2]): > 10 µM | Hill Slope (CDK4_CycD1; slope of the IC50 fit): -0.31
